Values joined by “and” are separate entries in the source; they are usually repeats but may differ in a detail not shown here. Equal values may be shown once. Inconclusive results and toxic doses are left out. Rule for the calls: active = survival T/C of 150% or more; inactive = T/C below 125% in these data.
System: P388 leukemia ip, CD2F1 mice, survival T/C
Experiment: NCI In Vivo Anticancer Drug Screen. Data for tumor model P388 Leukemia (intraperitoneal) in CD2F1 (CDF1) mice
Conditions: endpoint: median survival time, higher = longer survival
Method in brief: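 Mice carrying the transplanted tumor received test compound or vehicle. Survival was recorded in each group, and the value is the treated-group measurement divided by that of the vehicle-treated control group.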

[1] = dose: 50.0 mg/kg/injection, schedule: Q01DX009 (ip), vehicle: suspension in saline
[2] = dose: 100.0 mg/kg/injection, schedule: Q01DX009 (ip), vehicle: suspension in saline
[3] = dose: 200.0 mg/kg/injection, schedule: Q01DX009 (ip), vehicle: suspension in saline
[4] = dose: 60.0 mg/kg/injection, schedule: Q01DX005 (ip), vehicle: saline with Tween-80
[5] = dose: 120.0 mg/kg/injection, schedule: Q01DX005 (ip), vehicle: saline with Tween-80
[6] = dose: 240.0 mg/kg/injection, schedule: Q01DX005 (ip), vehicle: saline with Tween-80
[7] = dose: 25.0 mg/kg/injection, schedule: Q01DX009 (ip), vehicle: saline
[8] = dose: 50.0 mg/kg/injection, schedule: Q01DX009 (ip), vehicle: saline
[9] = dose: 100.0 mg/kg/injection, schedule: Q01DX009 (ip), vehicle: saline
[10] = dose: 25.0 mg/kg/injection, schedule: Q01DX009 (ip), vehicle: Klucel (hydroxypropylcellulose) (HPC)
[11] = dose: 50.0 mg/kg/injection, schedule: Q01DX009 (ip), vehicle: Klucel (hydroxypropylcellulose) (HPC)
[12] = dose: 100.0 mg/kg/injection, schedule: Q01DX009 (ip), vehicle: Klucel (hydroxypropylcellulose) (HPC)
[13] = dose: 6.25 mg/kg/injection, schedule: Q01DX009 (ip), vehicle: saline with Tween-80
[14] = dose: 12.5 mg/kg/injection, schedule: Q01DX009 (ip), vehicle: saline with Tween-80
[15] = dose: 200.0 mg/kg/injection, schedule: Q01DX009 (ip), vehicle: saline

Measured: T/C

Cc1c(C)[n+](=O)c2ccc(C=O)cc2n1[O-]
inactive: [1] 97 % of control | [2] 94 % of control | [3] 94 % of control

O=S1(=O)CCCN1c1ccccn1
inactive: [4] 102 % of control | [5] 105 % of control | [6] 101 % of control

CCCCN1C(=O)C(=O)N(c2ccccc2)C1=O
inactive: [4] 102 % of control | [5] 102 % of control | [6] 94 % of control

CC(=O)c1ccc2c(c1)-c1ccccc1C(=O)C2=O
inactive: [7] 98 % of control | [8] 106 % of control and 110 % of control | [9] 113 % of control and 119 % of control

CC1=Nc2ccc(Cl)cc2N=C(C)C1
inactive: dose: 100.0 mg/kg/injection, schedule: Q01DX001 (ip), vehicle: saline 106 % of control | dose: 200.0 mg/kg/injection, schedule: Q01DX001 (ip), vehicle: saline 107 % of control | dose: 400.0 mg/kg/injection, schedule: Q01DX001 (ip), vehicle: saline 100 % of control

COC(=O)C1=NNC(C(=O)OC)=C(c2ccccc2)C(c2ccccc2)=N1
inactive: [10] 89 % of control | [11] 90 % of control | [12] 93 % of control | dose: 200.0 mg/kg/injection, schedule: Q01DX009 (ip), vehicle: Klucel (hydroxypropylcellulose) (HPC) 98 % of control | dose: 400.0 mg/kg/injection, schedule: Q01DX009 (ip), vehicle: Klucel (hydroxypropylcellulose) (HPC) 106 % of control

Cc1cc(N(CC(C)Br)CC(C)Br)ccc1N=Nc1ccccc1C(=O)O (stereo unspecified)
inactive: [14] 108 % of control | dose: 12.5 mg/kg/injection, schedule: Q01DX009 (oral), vehicle: saline with Tween-80 115 % of control | dose: 100.0 mg/kg/injection, schedule: Q01DX009 (oral), vehicle: saline with Tween-80 89 % of control
active: [13] 196 % of control | dose: 50.0 mg/kg/injection, schedule: Q01DX009 (oral), vehicle: saline with Tween-80 157 % of control

CN(C)CCN(C)CC(C)(C)C(=O)/C=C/c1ccccc1
inactive: dose: 60.0 mg/kg/injection, schedule: Q01DX005 (ip), vehicle: saline 106 % of control | dose: 120.0 mg/kg/injection, schedule: Q01DX005 (ip), vehicle: saline 107 % of control

Cc1cc(C)c(C#N)c(OCC2CCCO2)n1 (stereo unspecified)
inactive: dose: 50.0 mg/kg/injection, schedule: Q01DX005 (ip), vehicle: saline with Tween-80 95 % of control | dose: 100.0 mg/kg/injection, schedule: Q01DX005 (ip), vehicle: saline with Tween-80 95 % of control

COc1cc2c(c3c1c(=O)c1ccc(F)cc1n3C)C=CC(C)(C)O2
inactive: dose: 50.0 mg/kg/injection, schedule: Q01DX005 (ip), vehicle: Klucel (hydroxypropylcellulose) (HPC) 98 % of control | dose: 100.0 mg/kg/injection, schedule: Q01DX005 (ip), vehicle: Klucel (hydroxypropylcellulose) (HPC) 108 % of control | dose: 200.0 mg/kg/injection, schedule: Q01DX005 (ip), vehicle: Klucel (hydroxypropylcellulose) (HPC) 109 % of control

CC(C)OC1=C2CCCCC2=[N+]2CCc3ccccc3C2C1 (stereo unspecified)
inactive: dose: 6.25 mg/kg/injection, schedule: Q04DX003 (ip), vehicle: saline with Tween-80 107 % of control | dose: 12.5 mg/kg/injection, schedule: Q04DX003 (ip), vehicle: saline with Tween-80 107 % of control | dose: 25.0 mg/kg/injection, schedule: Q04DX003 (ip), vehicle: saline with Tween-80 99 % of control

O=C(CN1CCCCC1)Nc1cccc(Cl)c1
inactive: dose: 50.0 mg/kg/injection, schedule: Q01DX009 (ip), vehicle: saline with Tween-80 100 % of control | [8] 103 % of control | dose: 100.0 mg/kg/injection, schedule: Q01DX009 (ip), vehicle: saline with Tween-80 100 % of control | [9] 107 % of control | dose: 200.0 mg/kg/injection, schedule: Q01DX009 (ip), vehicle: saline with Tween-80 123 % of control | [15] 120 % of control

O=Cc1ccc(C=O)cc1
inactive: dose: 100.0 mg/kg/injection, schedule: Q04DX002 (ip), vehicle: saline with Tween-80 98 % of control | dose: 200.0 mg/kg/injection, schedule: Q04DX002 (ip), vehicle: saline with Tween-80 102 % of control | dose: 400.0 mg/kg/injection, schedule: Q04DX002 (ip), vehicle: saline with Tween-80 102 % of control

NNc1ccc(N(CCO)CCO)nn1
inactive: [8] 93 % of control | [9] 100 % of control | [15] 105 % of control

O=S1(=O)C=C(Cl)C2C3CC(C(Cl)C3Cl)C21 (stereo unspecified)
inactive: dose: 15.0 mg/kg/injection, schedule: Q04DX003 (ip), vehicle: saline 100 % of control | dose: 30.0 mg/kg/injection, schedule: Q04DX003 (ip), vehicle: saline 91 % of control

Cc1ccccc1-[n+]1nc(-c2ccccc2)nn1-c1ccccc1
inactive: dose: 0.31 mg/kg/injection, schedule: Q01DX009 (ip), vehicle: saline with Tween-80 95 % of control | dose: 0.63 mg/kg/injection, schedule: Q01DX009 (ip), vehicle: saline with Tween-80 104 % of control | dose: 1.25 mg/kg/injection, schedule: Q01DX009 (ip), vehicle: saline with Tween-80 95 % of control

CCC(c1ccc(OC)cc1)C(NCC(=O)N/N=C1\C[C@@H]2[C@H](CC[C@]3(C)[C@@H](O)CC[C@@H]23)c2ccc(O)cc21)c1ccc(OC)cc1 (stereo partly specified)
inactive: dose: 100.0 mg/kg/injection, schedule: Q01DX001 (ip), vehicle: saline with Tween-80 100 % of control | dose: 200.0 mg/kg/injection, schedule: Q01DX001 (ip), vehicle: saline with Tween-80 99 % of control | dose: 400.0 mg/kg/injection, schedule: Q01DX001 (ip), vehicle: saline with Tween-80 99 % of control

COc1ccc(CCNC2Oc3ccc([N+](=O)[O-])cc3-c3nc(C)c(C#N)cc32)cc1OC (stereo unspecified)
inactive: dose: 15.0 mg/kg/injection, schedule: Q01DX005 (ip), vehicle: saline with Tween-80 98 % of control | dose: 30.0 mg/kg/injection, schedule: Q01DX005 (ip), vehicle: saline with Tween-80 98 % of control | [4] 91 % of control and 92 % of control

O=C(C[n+]1ccccc1)N/N=C/c1ccc([N+](=O)[O-])s1
inactive: [13] 100 % of control | dose: 6.25 mg/kg/injection, schedule: Q01DX009 (ip), vehicle: saline 104 % of control | [14] 96 % of control | dose: 12.5 mg/kg/injection, schedule: Q01DX009 (ip), vehicle: saline 100 % of control | dose: 25.0 mg/kg/injection, schedule: Q01DX009 (ip), vehicle: saline with Tween-80 116 % of control | [7] 100 % of control

CCOC(=O)c1c(N=P(c2ccccc2)(c2ccccc2)c2ccccc2)n(C)c(=O)n(C)c1=O
inactive: dose: 60.0 mg/kg/injection, schedule: Q01DX005 (ip), vehicle: Klucel (hydroxypropylcellulose) (HPC) 105 % of control | dose: 120.0 mg/kg/injection, schedule: Q01DX005 (ip), vehicle: Klucel (hydroxypropylcellulose) (HPC) 99 % of control | dose: 240.0 mg/kg/injection, schedule: Q01DX005 (ip), vehicle: Klucel (hydroxypropylcellulose) (HPC) 98 % of control

O=C(O)c1cc(Cc2ccc(O)c(C(=O)O)c2)ccc1O (tested in a mixture with another compound)
inactive: [10] 112 % of control | [11] 107 % of control and 115 % of control | [12] 121 % of control

O=C(Nc1ccc(-c2c[nH]c(=O)c([N+](=O)[O-])c2)cc1)OCc1ccccc1
inactive: [13] 95 % of control | [14] 95 % of control

CCOP(=S)(OCC)Oc1ccc([N+](=O)[O-])cc1
inactive: dose: 0.06 mg/kg/injection, schedule: Q01DX009 (ip), vehicle: saline 102 % of control | dose: 0.12 mg/kg/injection, schedule: Q01DX009 (ip), vehicle: saline 106 % of control | dose: 0.25 mg/kg/injection, schedule: Q01DX009 (ip), vehicle: saline 107 % of control | dose: 0.5 mg/kg/injection, schedule: Q01DX009 (ip), vehicle: saline 100 % of control

COc1ccc(CSC(=S)Nc2ccc(Cl)cc2Cl)cc1
inactive: [8] 106 % of control | [9] 105 % of control | [15] 99 % of control

O=C(Cc1nc2ccccc2[nH]1)C(F)(F)F
inactive: dose: 100.0 mg/kg/injection, schedule: Q01DX001 (ip), vehicle: Klucel (hydroxypropylcellulose) (HPC) 104 % of control | dose: 200.0 mg/kg/injection, schedule: Q01DX001 (ip), vehicle: Klucel (hydroxypropylcellulose) (HPC) 94 % of control | dose: 400.0 mg/kg/injection, schedule: Q01DX001 (ip), vehicle: Klucel (hydroxypropylcellulose) (HPC) 101 % of control

CC1=C(CCC(C)CO)OC2CC3C4CCC5CC(O)CCC5(C)C4CCC3(C)C12 (stereo unspecified)
inactive: dose: 25.0 mg/kg/injection, schedule: Q01DX009 (ip), vehicle: suspension in saline 90 % of control and 95 % of control | [1] 96 % of control | [2] 88 % of control and 94 % of control | [3] 87 % of control and 89 % of control

From PubChem BioAssay AID330 (DTP/NCI, 2004)
